# Measurements: US10526316B2, “Quinoxaline and pyridopyrazine derivatives as PI3Kβ inhibitors” (Janssen Pharmaceutica NV, priority 2015, dated 2020)
# Read-outs that look alike come from different tables or passages of the source.
# Legend:
# [1] = system: Akt phosphorylated at Ser473 in PC-3 cells; test: Cellular assay: phosphorylation of Akt at Ser473 in PC-3 cells (MSD ELISA); assay type: cell-based; conditions: PC-3 cells, 60 min compound incubation, MSD ELISA, read-out: IC50 pAkt_S473
# In short: (§1)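 After lysis of treated cells (60 min, 37° C, 0.3% DMSO), phospho-Akt levels were measured by MSD electrochemiluminescence ELISA. Potency was derived from concentration-response curves fitted over five concentrations.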
# [2] = molecular target: T1, PI3Kδ (Homo sapiens, UniProt O00329); test: Enzyme binding assay (KINOMEscan, DiscoveRx); conditions: PIK3Cδ_h
# T1 construct: purchased DiscoveRx Corporation, San Diego (contract service, KINOMEscan)
# T1 sequence (O00329 1-1044): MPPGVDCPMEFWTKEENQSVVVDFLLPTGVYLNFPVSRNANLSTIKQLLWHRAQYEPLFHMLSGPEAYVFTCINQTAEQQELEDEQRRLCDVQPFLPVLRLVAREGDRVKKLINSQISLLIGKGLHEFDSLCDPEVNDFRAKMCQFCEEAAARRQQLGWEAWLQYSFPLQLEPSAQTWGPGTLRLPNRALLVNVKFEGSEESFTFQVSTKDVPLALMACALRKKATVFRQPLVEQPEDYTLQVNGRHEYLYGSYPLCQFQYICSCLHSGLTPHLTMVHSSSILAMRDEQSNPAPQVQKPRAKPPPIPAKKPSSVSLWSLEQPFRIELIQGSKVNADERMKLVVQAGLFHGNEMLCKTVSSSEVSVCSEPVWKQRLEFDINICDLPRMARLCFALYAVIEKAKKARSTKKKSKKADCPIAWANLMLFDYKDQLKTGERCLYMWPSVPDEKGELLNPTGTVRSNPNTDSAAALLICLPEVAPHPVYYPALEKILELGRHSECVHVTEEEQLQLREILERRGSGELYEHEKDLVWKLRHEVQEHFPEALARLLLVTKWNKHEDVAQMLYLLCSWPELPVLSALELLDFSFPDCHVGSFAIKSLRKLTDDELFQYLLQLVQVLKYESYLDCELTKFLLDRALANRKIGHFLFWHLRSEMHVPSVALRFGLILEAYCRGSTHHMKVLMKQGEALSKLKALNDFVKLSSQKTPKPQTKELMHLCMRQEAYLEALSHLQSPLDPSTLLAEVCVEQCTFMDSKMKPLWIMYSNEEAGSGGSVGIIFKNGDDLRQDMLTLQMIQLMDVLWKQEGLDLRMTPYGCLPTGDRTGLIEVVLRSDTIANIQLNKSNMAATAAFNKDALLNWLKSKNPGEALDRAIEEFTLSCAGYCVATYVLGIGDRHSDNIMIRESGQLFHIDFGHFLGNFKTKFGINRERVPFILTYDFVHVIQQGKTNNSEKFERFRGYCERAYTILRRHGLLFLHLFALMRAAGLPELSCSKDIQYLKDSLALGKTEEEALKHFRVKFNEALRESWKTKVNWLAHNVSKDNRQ
# In short: (§2)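 Uses KINOMEscan technology to determine binding affinity toward the kinase enzymes.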
# [3] = molecular target: T2, PI3Kβ (Homo sapiens, UniProt P42338); test: Enzyme binding assay (KINOMEscan, DiscoveRx); conditions: PIK3Cβ_h, read-out: Kd PIK3Cβ_h
# T2 construct: purchased DiscoveRx Corporation, San Diego (contract service, KINOMEscan)
# T2 sequence (P42338 whole entry): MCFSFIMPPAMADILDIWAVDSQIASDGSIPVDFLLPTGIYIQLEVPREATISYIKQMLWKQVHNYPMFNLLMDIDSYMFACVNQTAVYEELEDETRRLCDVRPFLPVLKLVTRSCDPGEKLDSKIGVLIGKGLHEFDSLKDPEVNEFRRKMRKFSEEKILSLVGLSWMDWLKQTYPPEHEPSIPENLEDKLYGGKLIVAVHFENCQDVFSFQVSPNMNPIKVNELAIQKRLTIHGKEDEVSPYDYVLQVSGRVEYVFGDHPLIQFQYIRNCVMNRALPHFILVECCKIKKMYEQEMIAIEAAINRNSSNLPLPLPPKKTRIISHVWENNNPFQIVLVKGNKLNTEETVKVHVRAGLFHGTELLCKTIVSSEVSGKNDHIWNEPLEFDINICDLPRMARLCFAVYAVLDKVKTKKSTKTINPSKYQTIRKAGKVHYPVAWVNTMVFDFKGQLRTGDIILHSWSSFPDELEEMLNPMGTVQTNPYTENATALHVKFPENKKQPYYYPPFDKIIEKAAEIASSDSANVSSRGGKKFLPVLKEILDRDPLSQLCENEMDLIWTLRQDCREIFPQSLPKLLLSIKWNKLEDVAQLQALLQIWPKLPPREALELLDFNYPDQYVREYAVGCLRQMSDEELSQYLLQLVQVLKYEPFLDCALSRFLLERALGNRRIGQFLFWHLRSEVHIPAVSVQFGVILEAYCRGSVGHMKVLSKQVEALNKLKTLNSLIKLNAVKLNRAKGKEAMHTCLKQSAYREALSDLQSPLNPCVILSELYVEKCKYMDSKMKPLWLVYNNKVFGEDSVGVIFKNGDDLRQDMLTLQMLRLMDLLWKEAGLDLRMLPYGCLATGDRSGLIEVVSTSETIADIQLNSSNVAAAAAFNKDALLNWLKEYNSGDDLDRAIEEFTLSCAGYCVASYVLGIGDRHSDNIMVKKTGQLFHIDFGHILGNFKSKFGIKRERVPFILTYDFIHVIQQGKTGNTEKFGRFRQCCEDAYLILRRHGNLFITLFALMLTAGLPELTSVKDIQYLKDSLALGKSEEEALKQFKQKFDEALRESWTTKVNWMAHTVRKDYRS
# In short: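 Using the KINOMEscan format, the enzyme binding affinity of each compound was determined. Each value is the inhibitor binding constant, Kd (nM).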
# [4] = molecular target: T3, kinase enzymes (Homo sapiens, UniProt P48736); test: Enzyme binding assay (KINOMEscan, DiscoveRx), further kinases of Table A; conditions: PIK3Cγ_h
# T3 construct: purchased DiscoveRx Corporation, San Diego (contract service, KINOMEscan)
# T3 sequence (P48736 whole entry): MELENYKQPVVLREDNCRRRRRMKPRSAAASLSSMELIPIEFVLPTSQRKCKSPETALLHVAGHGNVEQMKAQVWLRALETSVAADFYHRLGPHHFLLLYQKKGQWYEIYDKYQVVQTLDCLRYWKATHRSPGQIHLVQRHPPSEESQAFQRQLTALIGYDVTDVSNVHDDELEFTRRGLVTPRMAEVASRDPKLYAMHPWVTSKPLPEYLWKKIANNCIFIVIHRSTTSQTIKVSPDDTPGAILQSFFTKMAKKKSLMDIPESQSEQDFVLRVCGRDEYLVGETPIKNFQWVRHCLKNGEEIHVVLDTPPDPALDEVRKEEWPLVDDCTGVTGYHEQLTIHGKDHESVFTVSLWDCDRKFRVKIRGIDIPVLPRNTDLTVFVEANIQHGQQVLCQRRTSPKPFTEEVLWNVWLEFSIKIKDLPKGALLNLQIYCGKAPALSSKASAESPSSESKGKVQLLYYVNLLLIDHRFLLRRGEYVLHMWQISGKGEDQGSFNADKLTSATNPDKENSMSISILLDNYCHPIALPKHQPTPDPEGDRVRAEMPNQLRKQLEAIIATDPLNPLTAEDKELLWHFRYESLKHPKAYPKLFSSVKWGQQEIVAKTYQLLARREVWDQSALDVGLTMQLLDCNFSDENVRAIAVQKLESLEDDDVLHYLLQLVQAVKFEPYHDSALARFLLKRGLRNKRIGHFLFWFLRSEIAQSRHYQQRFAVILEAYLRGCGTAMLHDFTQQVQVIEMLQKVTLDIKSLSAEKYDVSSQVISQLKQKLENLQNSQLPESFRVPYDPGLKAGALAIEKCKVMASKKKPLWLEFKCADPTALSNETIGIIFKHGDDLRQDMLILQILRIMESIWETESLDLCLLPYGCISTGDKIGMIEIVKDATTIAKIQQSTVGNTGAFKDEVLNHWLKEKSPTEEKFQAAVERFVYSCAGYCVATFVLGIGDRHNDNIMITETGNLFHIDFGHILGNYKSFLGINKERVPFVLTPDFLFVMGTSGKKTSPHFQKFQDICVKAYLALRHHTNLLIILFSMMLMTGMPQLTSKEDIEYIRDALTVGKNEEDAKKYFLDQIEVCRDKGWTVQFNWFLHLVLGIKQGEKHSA
# In short: as §2
# [5] = molecular target: T4, kinase enzymes (Homo sapiens, UniProt P42336); test: as above; conditions: PIK3Cα_h
# T4 construct: purchased DiscoveRx Corporation, San Diego (contract service, KINOMEscan)
# T4 sequence (P42336 whole entry): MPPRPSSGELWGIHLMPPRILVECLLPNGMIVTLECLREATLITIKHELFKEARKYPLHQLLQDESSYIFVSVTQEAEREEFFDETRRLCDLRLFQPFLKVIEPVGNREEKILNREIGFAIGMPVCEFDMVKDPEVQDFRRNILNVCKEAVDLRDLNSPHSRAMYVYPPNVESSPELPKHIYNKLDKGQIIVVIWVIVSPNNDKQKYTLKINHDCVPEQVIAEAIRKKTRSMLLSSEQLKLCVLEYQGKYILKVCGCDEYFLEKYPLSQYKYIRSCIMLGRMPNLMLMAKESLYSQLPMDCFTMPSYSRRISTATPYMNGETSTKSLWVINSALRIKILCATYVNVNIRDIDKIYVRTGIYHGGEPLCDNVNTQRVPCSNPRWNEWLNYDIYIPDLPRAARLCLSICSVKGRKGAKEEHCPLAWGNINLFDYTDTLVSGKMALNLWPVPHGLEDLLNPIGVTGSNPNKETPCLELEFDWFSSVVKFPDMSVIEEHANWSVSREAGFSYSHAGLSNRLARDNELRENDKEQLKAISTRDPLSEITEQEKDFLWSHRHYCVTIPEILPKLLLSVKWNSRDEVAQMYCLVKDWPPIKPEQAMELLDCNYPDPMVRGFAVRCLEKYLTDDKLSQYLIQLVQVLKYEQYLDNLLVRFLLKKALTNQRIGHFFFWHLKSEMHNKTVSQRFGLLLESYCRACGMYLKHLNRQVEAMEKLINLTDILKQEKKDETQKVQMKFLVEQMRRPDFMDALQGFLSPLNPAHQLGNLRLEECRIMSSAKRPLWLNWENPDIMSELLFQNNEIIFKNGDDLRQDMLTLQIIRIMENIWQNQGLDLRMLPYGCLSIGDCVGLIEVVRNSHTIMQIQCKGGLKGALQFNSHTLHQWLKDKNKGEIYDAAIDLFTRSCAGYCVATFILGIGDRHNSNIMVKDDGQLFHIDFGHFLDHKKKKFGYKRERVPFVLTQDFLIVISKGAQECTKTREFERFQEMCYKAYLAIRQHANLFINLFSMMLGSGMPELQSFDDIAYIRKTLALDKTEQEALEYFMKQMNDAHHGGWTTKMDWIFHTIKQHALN
# In short: as §2
# [6] = molecular target: T5, kinase enzymes (Homo sapiens, UniProt P42345); test: as above; conditions: MTOR_h
# T5 construct: purchased DiscoveRx Corporation, San Diego (contract service, KINOMEscan)
# In short: as §2
# [7] = system: Akt phosphorylated at Thr308 in PC-3 cells; test: Cellular assay: phosphorylation of Akt at Thr308 in PC-3 cells (MSD ELISA); assay type: cell-based; conditions: PC-3 cells, 60 min compound incubation, MSD ELISA, read-out: IC50 pAkt_Thr308
# In short: as §1
IC50 [1],Kd [2],melting point,Kd [3],Kd [4],Kd [5],Kd [6],IC50 [7],"IC50 ([1]; Homo sapiens, PC-3, 1 h)","IC50 ([7]; Homo sapiens, PC-3, 1 h)",SMILES
,912 nM,102 °C,10 nM,29500 nM,3020 nM,> 30200 nM,138 nM,288 nM,,"CC(Nc1ccc(F)c(F)c1)c1cc(C(=O)NCC(C)(C)O)cc2ncc(N3CCOCC3)nc12 (single isomer, unassigned) [Compound 348a]"
> 513 nM,20900 nM,106 °C,741 nM,2750 nM,23400 nM,> 30200 nM,> 513 nM,,,"CC(Nc1ccc(F)c(F)c1)c1cc(C(=O)NC[C@@H](C)O)cc2ncc(N3CCOCC3)nc12 (single isomer, unassigned) [Compound 346b]"
32 nM,141 nM,132 °C,0.3 nM,5890 nM,2460 nM,> 30200 nM,17 nM,,,"CC(Nc1ccc(F)c(F)c1)c1cc(C(=O)N[C@H]2CCNC2)cc2ncc(N3CCOCC3)nc12 (single isomer, unassigned) [Compound 374a]"
,> 30200 nM,200 °C,4790 nM,13800 nM,> 30200 nM,> 30200 nM,,> 513 nM,> 513 nM,CC(Nc1cc(F)c(C(F)(F)F)c(F)c1)c1cc(C(=O)NCCO)cc2ncc(N3CCOCC3)nc12 (centres unmarked) [Compound 223]
,7760 nM,80 °C,309 nM,6310 nM,7240 nM,30900 nM,,> 513 nM,> 513 nM,Cc1ccc(NC(C)c2cc(C(=O)NCCO)cc3ncc(N4CCOCC4)nc23)cc1F (centres unmarked) [Compound 295]

# The remaining lines, values behind:
SMILES,IC50 [1],Kd [2],melting point,Kd [3],Kd [4],Kd [5],Kd [6],IC50 [7],"IC50 ([1]; Homo sapiens, PC-3, 1 h)","IC50 ([7]; Homo sapiens, PC-3, 1 h)"
"COC(=O)c1cc(C2CCCN2c2cc(F)cc(F)c2)c2nc(N3CCOCC3)cnc2c1 (single isomer, unassigned) [Compound 31]",> 513 nM,> 32000 nM,213 °C,> 32000 nM,> 32000 nM,> 32000 nM,> 32000 nM,> 513 nM,,
"CN1CCN(C(=O)c2cc(C3CCCN3c3cc(F)cc(F)c3)c3nc(N4CCOCC4)cnc3c2)CC1 (single isomer, unassigned) [Compound 57]",~5 nM,31 nM,80 °C,0.4 nM,525 nM,49 nM,25100 nM,4 nM,,
"CC(Oc1cccc(F)c1)c1cc(C(=O)N2CCC[C@H]2CO)cc2ncc(N3CCOCC3)nc12 (single isomer, unassigned) [Compound 87]",> 513 nM,9550 nM,74 °C,1380 nM,> 30200 nM,22900 nM,> 30200 nM,> 513 nM,,
Cc1cc(C)cc(NC(C)c2cc(C(=O)N3CCOCC3)cc3ncc(N4CCOCC4)nc23)c1 (centres unmarked) [Compound 126],,1290 nM,80 °C,13 nM,> 30200 nM,6920 nM,> 30200 nM,,427 nM,275 nM
CC(Sc1ccccc1)c1cc(C(=O)N(C)C)cc2ncc(N3CCOCC3)nc12 (centres unmarked) [Compound 135],,3800 nM,144 °C,195 nM,17400 nM,10000 nM,11200 nM,,> 513 nM,> 513 nM
"O=C(c1cc(C2CCCN2c2cc(F)cc(F)c2)c2nc(N3CCOCC3)cnc2c1)N1CCS(=O)(=O)CC1 (single isomer, unassigned) [Compound 38]",~0.8 nM,6 nM,146 °C,0.4 nM,933 nM,3 nM,> 30200 nM,1 nM,,
"CC(Oc1cccc(F)c1)c1cc(C(=O)N2CCC[C@H]2CO)cc2ncc(N3CCOCC3)nc12 (single isomer, unassigned) [Compound 86]",,537 nM,76 °C,15 nM,21400 nM,3470 nM,> 30200 nM,,513 nM,263 nM
"O=C(c1cc(C2CCCN2c2cc(F)cc(F)c2)c2nc(N3CCOCC3)cnc2c1)N1CC2(COC2)C1 (single isomer, unassigned) [Compound 47]",,32 nM,80 °C,0.2 nM,759 nM,41 nM,14800 nM,,3 nM,4 nM
